Source: patent US20120130104A1, “CYCLOPROPENES-[…] TO CONTROL RIPENING PROCESSES OF AGRICULTURAL PRODUCTS” (priority 2005, published 2012)

System: tomatoes
Test: Inhibitory effects of cyclopropene compounds on tomato ripening
Type: in vivo
Conditions: for Degree of ripening 0, number of tomatoes, Treated / Degree of ripening 1, number of tomatoes, Treated / Degree of ripening 2, number of tomatoes, Treated / Degree of ripening 3, number of tomatoes, Treated / Degree of ripening 4, number of tomatoes, Treated / Degree of ripening 5, number of tomatoes, Treated: scale 0 = no red color, 5 = completely ripened to dark red
Description: A cube (60×60×60 cm) was fabricated using a transparent acrylic plastic plate. The upper surface of the cube was equipped with two valves for air-injection and exhaust. Immediately prior to beginning of the red ripening stages, 20 blue tomatoes were harvested and divided into a treatment group and a control group which were then placed in acrylic plastic vessels, respectively. Among two plastic vessels, the treatment group was treated with 1-methylcyclopropene generated by injection of 3 mL diglyme solution containing 0.2 g of 1-methyl-1-(methanesulfonyloxy)-2-(trimethylsilyl)cyclopropane {synthesized in Section (2) of Example 5} into a column packed with 5 g of 15% Bu4NF coated Silica gel {prepared in Section (2) of Example 4} while maintaining the air flow at a flow rate of 2 L/min using a small compressor (see FIG. 3).
Tomatoes of the treatment group were treated for 1 hour according to the above-mentioned method and were then left for 12 hours while closing the valve. And then, tomatoes of the treatment group and tomatoes of the control group were observed on a progress of turning into red color. Based on the observation results, the ripening progress of tomatoes was evaluated.
Herein, the degree of ripening of tomatoes was classified on a scale of 0 to 5:
0: No red color similar to when completely green tomatoes were harvested 5: Completely ripened to dark red 1 to 4: Red color between the scale of 0 and 5
Therefore, the higher value represents the redder tomato color.

## CC1=CC1 [1-methylcyclopropene]
1-methylcyclopropene generated by the device
  inhibitory effects on the ripening process of tomatoes: significant inhibitory effects
Day 0
  Degree of ripening 0, number of tomatoes, Treated: 10
  Degree of ripening 1, number of tomatoes, Treated: 0
  Degree of ripening 2, number of tomatoes, Treated: 0
  Degree of ripening 3, number of tomatoes, Treated: 0
  Degree of ripening 4, number of tomatoes, Treated: 0
  Degree of ripening 5, number of tomatoes, Treated: 0
Day 1
  Degree of ripening 0, number of tomatoes, Treated: 10
  Degree of ripening 1, number of tomatoes, Treated: 0
  Degree of ripening 2, number of tomatoes, Treated: 0
  Degree of ripening 3, number of tomatoes, Treated: 0
  Degree of ripening 4, number of tomatoes, Treated: 0
  Degree of ripening 5, number of tomatoes, Treated: 0
Day 2
  Degree of ripening 0, number of tomatoes, Treated: 10
  Degree of ripening 1, number of tomatoes, Treated: 0
  Degree of ripening 2, number of tomatoes, Treated: 0
  Degree of ripening 3, number of tomatoes, Treated: 0
  Degree of ripening 4, number of tomatoes, Treated: 0
  Degree of ripening 5, number of tomatoes, Treated: 0
Day 3
  Degree of ripening 0, number of tomatoes, Treated: 9
  Degree of ripening 1, number of tomatoes, Treated: 1
  Degree of ripening 2, number of tomatoes, Treated: 0
  Degree of ripening 3, number of tomatoes, Treated: 0
  Degree of ripening 4, number of tomatoes, Treated: 0
  Degree of ripening 5, number of tomatoes, Treated: 0
Day 4
  Degree of ripening 0, number of tomatoes, Treated: 8
  Degree of ripening 1, number of tomatoes, Treated: 1
  Degree of ripening 2, number of tomatoes, Treated: 1
  Degree of ripening 3, number of tomatoes, Treated: 0
  Degree of ripening 4, number of tomatoes, Treated: 0
  Degree of ripening 5, number of tomatoes, Treated: 0
Day 5
  Degree of ripening 0, number of tomatoes, Treated: 8
  Degree of ripening 1, number of tomatoes, Treated: 1
  Degree of ripening 2, number of tomatoes, Treated: 0
  Degree of ripening 3, number of tomatoes, Treated: 1
  Degree of ripening 4, number of tomatoes, Treated: 0
  Degree of ripening 5, number of tomatoes, Treated: 0
Day 6
  Degree of ripening 0, number of tomatoes, Treated: 6
  Degree of ripening 1, number of tomatoes, Treated: 2
  Degree of ripening 2, number of tomatoes, Treated: 1
  Degree of ripening 3, number of tomatoes, Treated: 0
  Degree of ripening 4, number of tomatoes, Treated: 1
  Degree of ripening 5, number of tomatoes, Treated: 0
Day 7
  Degree of ripening 0, number of tomatoes, Treated: 6
  Degree of ripening 1, number of tomatoes, Treated: 2
  Degree of ripening 2, number of tomatoes, Treated: 1
  Degree of ripening 3, number of tomatoes, Treated: 0
  Degree of ripening 4, number of tomatoes, Treated: 0
  Degree of ripening 5, number of tomatoes, Treated: 1
Day 8
  Degree of ripening 0, number of tomatoes, Treated: 5
  Degree of ripening 1, number of tomatoes, Treated: 2
  Degree of ripening 2, number of tomatoes, Treated: 1
  Degree of ripening 3, number of tomatoes, Treated: 1
  Degree of ripening 4, number of tomatoes, Treated: 0
  Degree of ripening 5, number of tomatoes, Treated: 1
Day 9
  Degree of ripening 0, number of tomatoes, Treated: 2
  Degree of ripening 1, number of tomatoes, Treated: 3
  Degree of ripening 2, number of tomatoes, Treated: 2
  Degree of ripening 3, number of tomatoes, Treated: 1
  Degree of ripening 4, number of tomatoes, Treated: 1
  Degree of ripening 5, number of tomatoes, Treated: 1
Day 10
  Degree of ripening 0, number of tomatoes, Treated: 1
  Degree of ripening 1, number of tomatoes, Treated: 1
  Degree of ripening 2, number of tomatoes, Treated: 3
  Degree of ripening 3, number of tomatoes, Treated: 2
  Degree of ripening 4, number of tomatoes, Treated: 1
  Degree of ripening 5, number of tomatoes, Treated: 2
Even after 10 days
  full ripening of tomatoes of the treatment group: most of them did not exhibit full ripening
Treatment group, control group began to ripen after 1 day
  time after which tomatoes of the treatment group began the ripening process: about 3 days
